Data as given in paper PMC5583658, “6,7-dimethoxy-1,2,3,4-tetrahydro-isoquinoline-3-carboxylic acid attenuates heptatocellular carcinoma in rats with NMR-based metabolic perturbations” (Future Science OA, 2017).

Assays:
[1] = tested on: diethylnitrosamine-induced hepatocarcinogenic rats; experiment: Oxidative stress parameters (SOD, CAT, GSH, PC, MDA) in liver of DEN-induced HCC rats; format: in vivo, albino Wistar rats; details: for CAT / MDA / PC / Reduced GSH / SOD: 15 days, mean ± SD, n = 6
Protocol: All animals were randomly divided into five groups of six animals each. Drugs were suspended in 0.25% CMC, subjected to 28 days’ treatment orally and divided as follows: Group I: 0.25% CMC (2 ml/kg), Group II: DEN (8 mg/kg, intraperitoneally), Group III: DEN+5-fluorouracil (5-FU, 10 mg/kg, intraperitoneally), Group IV: DEN+M1 (50 mg/kg, orally) and Group V: DEN+M1 (100 mg/kg, orally). The procedure to induce HCC was adopted from a paper by Song et al. where it is shown that DEN produces HCC at 8 mg/kg intraperitoneal injection for 28 days to albino Wistar rats. After initial 1 week of adaptive inhabitation, all rats of group II–V were administered with DEN (8 mg/kg, intraperitoneally) for 28 days. After 28 days, 5-FU and M1 were given for 15 days as mentioned above for group III–V. At the end of the experimental period, animals were sacrificed by cervical decapitation and livers were dissected out immediately, rinsed in ice cold saline and stored at -20°C for further studies. The serum was collected, processed and stored for further analysis.
Liver function biomarkers like aspartate aminotransferase (AST), alanine aminotransferase (ALT) were also measured in serum using commercially available kit from Ebra Diagonesis Pvt Ltd, Germany. The oxidative parameters like superoxide dismutase (SOD), thiobarbituric acid reactive substances (TBARS), protein carbonyl (PC), SOD [14], tissue catalase (CAT) and glutathione (GSH) levels were estimated in liver tissue in the similar experiment. The total protein content of each sample was measured using the Bradford reagent and bovine serum albumin was used as a standard. Conjugated bilirubin and biliverdin in liver were measured as per the following procedure stated earlier in the literature with slight modifications.

[2] = Determination of M1 in rat plasma by HPLC (pharmacokinetics); format: in vivo, albino Wistar rats
Protocol: In a separate experiment, M1 was administered orally at 50 mg/kg bodyweight to albino Wistar rats (n = 3) and blood was collected from retro orbital plexus at 0.083, 0.25, 0.5, 1, 2, 4, 8, 12, 16, 24 and 36 h. After collection, blood was centrifuged at 10,000 rpm for 10 min, serum was separated and kept at -20°C for further HPLC determination.
A 1 mg/ml stock solution of M1 was prepared in methanol. 2, 5, 10, 25, 50, 100, 200, 250 and 500 ng/ml working solutions were prepared from the stock solution in methanol. A 100 μl of blank plasma and 100 μl working solutions were taken in separate tubes and vortexed for 30 min. After that, the tubes were centrifuged at 13,000 rpm for 5 min and supernatant was taken into another tube and dried at 40°C overnight. Later, the tubes were reconstituted with 50 μl of methanol, vortexed for 10 min and 20 μl was injected for HPLC analysis. The final concentration of working solutions were 1, 2.5, 5, 12.5, 25, 50, 100, 125 and 250 ng/ml, respectively. Quality control (QC) samples were also prepared at concentrations of 3.0, 25.0 and 200.0 ng/ml, representing low, medium and high QC samples (LQC, MQC and HQC), respectively. Triplicate calibrants and QC samples were prepared at each concentration.
For test samples, 100 μl of test plasma and 100 μl methanol were taken in a test tube and vortexed for 30 min. The other procedure was similar to previously described method.
For the determination of M1 in plasma samples, chromatographic separations were performed in a Waters 2489 HPLC (MA, USA) equipped with Spherowsorb C18, 5μ, 4.6 × 250 mm column. The flow rate was at 1.0 ml/min and the mobile phases consisted of solvent A (formic acid containing water, pH 3.4) and solvent B (methanol). The elution condition was methanol:formic acid (70:30) and the total run time was 8 min. The HPLC was run through Empower software version 2 and absorbance was measured at 230 nm wave length. The detector used for estimation was Waters 2489 UV-Vis detector. The final data was calculated using Winnonlin version 1.5.3 software.

[3] = albino Wistar, rat, single oral administration of 50 mg/kg in rats, n = 3, plasma

For `COc1cc2c(cc1OC)CC(C(=O)O)NC2` (stereo not shown) [M1, 6,7-dimethoxy-1,2,3,4-tetrahydro-isoquinoline-3-carboxylic acid], the CAT ([1]; DEN+M1 50 mg/kg orally) was 6.51 ± 0.29 nM of H2O2/min/μg of protein, the MDA ([1]; DEN+M1 50 mg/kg orally) was 51.60 ± 1.009 nM/μg of protein and the PC ([1]; DEN+M1 50 mg/kg orally) was 0.46 ± 0.08 μM/μg of protein. The “Reduced GSH” value ([1]; DEN+M1 50 mg/kg orally) was 5.40 ± 0.42 μM/μg of protein, the SOD ([1]; DEN+M1 50 mg/kg orally) was 5.92 ± 0.72 U/μg of protein and the CAT ([1]; DEN+M1 100 mg/kg orally) was 7.52 ± 0.7 nM of H2O2/min/μg of protein. The MDA ([1]; DEN+M1 100 mg/kg orally) was 45.20 ± 1.05 nM/μg of protein, the PC ([1]; DEN+M1 100 mg/kg orally) was 0.40 ± 0.02 μM/μg of protein and the “Reduced GSH” value ([1]; DEN+M1 100 mg/kg orally) was 6.69 ± 0.30 μM/μg of protein. The SOD ([1]; DEN+M1 100 mg/kg orally) was 6.14 ± 0.17 U/μg of protein, the GSH level ([1]; M1 50 mg/kg) was about 5.40 µM and the GSH level ([1]; M1 100 mg/kg) was about 6.69 µM. For the same molecule, the “SOD level as compared with normal group” value ([1]; M1-treated groups (toxic control 20–30%)) was 70–80%, the PC formation ([1]; M1-treated rats, text value (toxic control ∼0.96 μM)) was about 0.40 µM and the MDA formation ([1]; after M1 therapy, text value (toxic control approximately 98 nM)) was about 50 nM. The AUC(0-t) ([2]; albino Wistar, rat, plasma, po, 50 mg/kg, single oral administration of 50 mg/kg in rats, n = 3, plasma, after 36 h) was 2070 ng·h/mL, the Cmax [2, 3] was 178 ± 3.27 ng/mL and the Tmax [2, 3] was 4 h. The half-life [2, 3] was 6.05 h, the MRT ([2]; albino Wistar, rat, single oral administration of 50 mg/kg in rats, n = 3, plasma, read-out: MRT (mean retention time)) was 10.5 h and the “oral bioavailability (in words)” value ([2]; oral 50 mg/kg, rats, inferred from Cmax) was “good oral bioavailability”. It also gave an AUC0-T ([2]; single oral administration of 50 mg/kg in rats, n = 3, plasma, after 36 h, 50 mg/kg) of 2056.05 ± 26.22 ng·h/mL.
